Test results published in US12228568B2, “Redox-labile fluorescent probes and their surface immobilization methods for the detection of metabolites” (The Regents of the University of California, priority 2018, dated 2025).
Where a SMILES comes first, the peptide text is derived from it. The star is where a group is joined. Biotin = O=C1N[C@H]2[C@H](CS[C@H]2CCCCC(=O)*)N1; X1 = O=C(c1c(O)ccc2c1oc1cc(=O)ccc-1[n+]2[O-])*

How the values were obtained:
[1] = Stability of modified resazurin probes; assay type: physicochemical; conditions: solution phase, 8 μM in PBS
Procedure: FIG. 7. Synthesis of the extended CRz bearing an aliphatic carboxyl group (CPRz). This carboxyl group could be readily converted to an NHS ester using standard coupling procedures. However, the ss-DNA-CPRz was not stable, and went through spontaneous self-reduction even at −20° C.
FIG. 10. Stability of Biotin-modified CRz (BRz) in solution phase. 8 μM in PBS. At 6 hrs, all the BPRz was reduced through adding 10 units of Diaphorase and 1 mM of NADH in PBS.
FIG. 11. Stability of the APRz probe (8 μM in PBS). The “reduced” signal was obtained through adding 10 units of Diaphorase and 1 mM of NADH to the APRz solution followed by a 1 hour incubation.
In order to be adapted to the SCBC platform, the probe immobilization process should be compatible with the single-stand DNA hybridization process.^[5] However, the N-oxide group on CRz confers strong redox lability. Consequently, the attempt of conjugating the amine-modified CRz to a single strand DNA (ssDNA) was unsuccessful.

[2] = Surface-based lactate assay on immobilized resazurin probes (coupled LDH/diaphorase reactions); assay type: biochemical; conditions: surface-immobilized probe; sodium lactate, NAD+, LDH and diaphorase
From the text: We then evaluated the BRz and APRz probes for their performance in lactate detection experiments. BRz was immobilized onto the surface through ssDNA-streptavidin conjugates. Similarly, dibenzocyclooctyne-modified ssDNA enabled surface grafting of APRz molecules (FIG. 3, panel a).^[10] The resazurin-modified surfaces were exposed to a solution containing a mixture of sodium lactate, nicotinamide adenine dinucleotide (NAD+), lactate dehydrogenase (LDH) and diaphorase. In this case, the enzyme reaction cascade shown in FIG. 1, panel a translates the lactate quantity to fluorescence readouts.
A 16-well PDMS slab was placed onto a microscope glass slide, on which single strand DNA oligomers are patterned in 20 μm stripes. The volume of each well is 50 μL and it is equipped with at least eight sets of DNA barcode strips. […]
Subsequently, each well was washed with PBST for three times. At this stage, the APRz probe was immobilized to the surface and ready to use.
To obtain the standard curve for lactate quantification, 20 μL of NAD+ solution (1 mM in PBST), 1 μL of LDH solution (1 kU in ammonium sulfate buffer), 1 μL of diaphorase solution (1 kU/mL in PBS) and 20 μL of lactate solution (various concentrations in PBST) was added to each well and the device was incubated at room temperature for one hour. […] The surface fluorescence intensity was then measured by a microscanner. […]

[3] = Interference of intracellular reducing agents with APRz detection; assay type: biochemical; conditions: Glutamine 6 mM; Glucose 6 mM; Ascorbate 100 nM; Glutathione 6 mM; APRz 8 µM in PBS
From the text: FIG. 15. Comparison of the reaction kinetics using different reducing agents.
A potential concern of employing the enzymatic mechanism for lactate quantitation was the specificity of the method. The complex intracellular contents always pose strong challenges on such redox-based methods. […] In order to evaluate the combined interference from all intracellular components, we further performed validation using GBM39 cell lysates.

[4] = system: GBM39 cells; test: SCBC single cell metabolic/proteomic measurements; assay type: cell-based, human; conditions: for glucose uptake / lactate production: erlotinib 1 μM 24 h or oligomycin A 0.1 μM 3 h vs DMSO
From the text: We then sought to adapt the lactate assay for single cell level quantitation. The surface-based lactate assay was incorporated onto the SCBC platform, which consisted of a two-layer elastomer microfluidics device coupled to a DNA barcoded glass slide.^[5, 7] The device contained 384 programmable microchambers where cells were loaded and lysed for analysis. Each microchamber was equipped with a set of DNA barcode stripes, which served as a scaffold for multiplex measurements (FIG. 18). We quantified glucose uptake, lactate production and a panel of signaling proteins from GBM39 single cells. GBM39 is a human glioblastoma cell line that harbors a mutated form of the epidermal growth factor receptor (EGFR), which drives cell proliferation. Cells were treated with 1 μM of erlotinib (EGFR inhibitor), 0.1 μM of oligomycin A (ATPase inhibitor) or DMSO (control) before analysis.
GBM 39 primary neurospheres were provided by Prof. C. David James (UCSF, San Francisco, U.S.A.) and HK301 cells were provided by Prof. Harley Kornblum (UCLA, Los Angeles, U.S.A). Cells were cultured in Dulbecco's Modified Eagle Media Nutrient Mix F-12 (DMEM/F12, Thermo) supplemented with B27 (Invitrogen), Glutamax (Thermo), heparin (1 μg/mL, Sigma), Epidermal Growth Factor (EGF, […], Sigma), Fibroblast Growth Factor (FGF, 20 ng/mL, Sigma) and 100 U/mL of penicillin and streptomycin (Thermo) in a humidified 5% CO2 (v/v) incubator at 37° C. […] For the erlotinib group, the GBM 39 cells were treated for 24 h while for the oligomycin group, the cells were treated for 3 h. Afterwards, the treated cells were processed for tests.
For SCBC measurements, the as-prepared single cells were resuspended in warm media with 10 μg/mL of Gluc-Bio at 1 M cells/mL. After incubated at 37° C. for 30 min and washed with cold PBS for 3 times, the collected cell pellet was resuspended in serum-free, biotin-free media which contained 25 U/mL lactate dehydrogenase (LDH) and 25 U/mL diaphorase. The concentration of the as-prepared single cell suspension was 1 M cells/mL.
The single cell barcode chips (SCBC) were fabricated according to well-established procedures. DNA-encoded antibody library (DEAL) was grafted onto the surface through DNA hybridization to afford capture antibody arrays. The DNA-APRz conjugate can also be incorporated onto the surface barcode through the same procedure. […] 2) the lysis buffer was prepared to contain 2 mM of NAD^+.
The SCBC readouts from the microchambers with single cells were collected to form a data table. Each row of the table corresponds to a measurement of a panel of functional proteins from a single cell and each column contains digitized fluorescence intensities that provide readout of the levels of each of the assayed proteins. […]. Protein-protein Spearman's rank correlation coefficients were calculated. Bonferroni corrected p-value was used to define the statistical significance level for the entire panel and only those significant correlations were shown in the networks. Analyte-analyte correlation networks were generated by running the calculation through all the analyte pairs in panel.

Row | SMILES | fluorescence increase within the assay duration [3] | reaction kinetics of APRz reduction by reducing agent [3] | glucose uptake [4] | lactate production [4] | further results
1 | NCCCC[C@H](NC(=O)CNC(=O)CCCC[C@@H]1SC[C@@H]2NC(=O)N[C@@H]21)C(=O)NCC(=O)N[C@@H](CCCCN)C(=O)NCC(=O)N[C@@H](CCCCN)C(=O)NCC(=O)N[C@@H](CCCCNC(=O)c1c(O)ccc2c1oc1cc(=O)ccc-1[n+]2[O-])C(=O)NCC(N)=O [BRz] (Biotin-GKGKGKGK(X1)G-NH2) |  |  |  |  | stability of probe [1]: superior stability; increase of fluorescence intensity after lactate conversion [2]: unsatisfactory fluorescence increase
2 | O=C1O[C@H]([C@@H](O)CO)C(O)=C1O [ascorbic acid] | insignificant fluorescence increase | very slow reaction kinetics |  |  | 
3 | C#Cc1cccc(Nc2ncnc3cc(OCCOC)c(OCCOC)cc23)c1 [erlotinib] |  |  | dramatically decreased | dramatically decreased | phosphorylation levels on EGFR as well as downstream signaling proteins ([4]; erlotinib 1 μM 24 h vs DMSO): significant down regulation
4 | N[C@@H](CCC(=O)N[C@@H](CS)C(=O)NCC(=O)O)C(=O)O [glutathione] | insignificant fluorescence increase | very slow reaction kinetics |  |  | 
5 | CC[C@H]1/C=C/C=C/C[C@@H](C)[C@H](O)[C@@](C)(O)C(=O)[C@@H](C)[C@H](O)[C@@H](C)C(=O)[C@@H](C)[C@H](O)[C@@H](C)/C=C/C(=O)O[C@@H]2[C@H](C)[C@H](CC1)O[C@]1(CC[C@H](C)[C@H](C[C@@H](C)O)O1)[C@H]2C [oligomycin, oligomycin A] |  |  | slightly higher | significantly increased | phosphoproteins downstream of the EGFR signaling pathway ([4]; oligomycin A 0.1 μM 3 h vs DMSO): suppress
